# According to article PMC11173647, “Anti-Inflammatory Activity of Pyrazolo[1,5-a]quinazolines” (Molecules, 2024):
# Read-outs that look alike come from different tables or passages of the source.
# How the values were obtained:
# THP-1Blue cells = experiment: Cytotoxicity, CellTiter-Glo Luminescent Cell Viability Assay; format: cell-based, human; conditions: 24 h, concentrations up to 50 µM
# Procedure: Cytotoxicity was analyzed with a CellTiter-Glo Luminescent Cell Viability Assay Kit from Promega (Madison, WI, USA) according to the manufacturer’s protocol. THP-1Blue cells were treated with varying concentrations of the test compounds (up to 50 µM) and cultivated for 24 h. After treatment, the cells were allowed to equilibrate to room temperature for 30 min, the substrate was added, and the samples were analyzed with a Fluoroscan Ascent FL (Thermo Fisher Scientific, Waltham, MA, USA).
# [1] = test system: LPS-induced NF-κB/AP-1 transcriptional activity in THP-1Blue cells; experiment: LPS-induced NF-κB/AP-1 reporter (secreted alkaline phosphatase) activity in THP-1Blue cells; format: cell-based, human; conditions: for inhibitory activity in THP-1Blue cells (in words): LPS-induced NF-κB/AP-1 reporter activity; for IC50: THP-1Blue cells, 30 min pretreatment, 250 ng/mL LPS for 24 h, alkaline phosphatase in supernatant, read-out: AP Production IC50
# Procedure: THP-1 cells are a human monocyte cell line that was developed from a monocyte isolated from the peripheral blood of an acute monocytic leukemia patient. This cell line is used as a monocyte/macrophage model in immunology research. The THP-1Blue cells obtained from InvivoGen (San Diego, CA, USA) are THP-1 cells that were stably transfected with a secreted embryonic alkaline phosphatase gene that is under control of a NF-κB/AP-1-inducible promoter. For this study, THP-1Blue cells were cultured at 37 °C in a humidified atmosphere containing 5% CO2 in RPMI 1640 medium (Mediatech Inc., Herndon, VA, USA) supplemented with 10% (v/v) fetal bovine serum (FBS), 100 μg/mL streptomycin, 100 U/mL penicillin, 100 μg/mL phleomycin (Zeocin), and 10 μg/mL blasticidin S (all from Sigma-Aldrich, St. Louis, MO, USA).
# To measure the activation of AP-1/NF-κB, the THP-1Blue cells (2 × 10^5 cells/well) were pretreated with the test compounds or dimethyl sulfoxide (DMSO; 1% final concentration) for 30 min, followed by the addition of 250 ng/mL of lipopolysaccharide (LPS; from Escherichia coli strain 0111:B4) for 24 h, and alkaline phosphatase activity was measured in the cell supernatants using the QUANTI-Blue mix (InvivoGen) as the absorbance at 655 nm and compared with positive control samples (LPS). The concentration of the compound that caused 50% inhibition of the NF-κB reporter activity (IC50) was calculated.
# Solubility in DMSO = format: physicochemical
# JNK3 = target: T1, JNK3 (Homo sapiens, UniProt P53779); experiment: KINOMEscan ATP site-dependent binding assay; conditions: duplicate
# T1 construct: purchased Eurofins Pharma Discovery (KINOMEscan)
# Procedure: (§1) Binding reactions were performed at room temperature for 1 h, and the fraction of kinase not bound to the test compound was determined by capture with an immobilized affinity ligand and quantified by quantitative polymerase chain reaction. The primary screening at fixed concentrations of the compound was performed in duplicate.
# JNK1 = target: T2, JNK1 (Homo sapiens, UniProt P45983); experiment: KINOMEscan ATP site-dependent binding assay; conditions: duplicate
# T2 construct: purchased Eurofins Pharma Discovery (KINOMEscan)
# Procedure: as §1
# JNK2 = target: T3, JNK2 (Homo sapiens, UniProt P45984); experiment: KINOMEscan ATP site-dependent binding assay; conditions: duplicate
# T3 construct: purchased Eurofins Pharma Discovery (KINOMEscan)
# Procedure: as §1
# T1 sequence (P53779 whole entry): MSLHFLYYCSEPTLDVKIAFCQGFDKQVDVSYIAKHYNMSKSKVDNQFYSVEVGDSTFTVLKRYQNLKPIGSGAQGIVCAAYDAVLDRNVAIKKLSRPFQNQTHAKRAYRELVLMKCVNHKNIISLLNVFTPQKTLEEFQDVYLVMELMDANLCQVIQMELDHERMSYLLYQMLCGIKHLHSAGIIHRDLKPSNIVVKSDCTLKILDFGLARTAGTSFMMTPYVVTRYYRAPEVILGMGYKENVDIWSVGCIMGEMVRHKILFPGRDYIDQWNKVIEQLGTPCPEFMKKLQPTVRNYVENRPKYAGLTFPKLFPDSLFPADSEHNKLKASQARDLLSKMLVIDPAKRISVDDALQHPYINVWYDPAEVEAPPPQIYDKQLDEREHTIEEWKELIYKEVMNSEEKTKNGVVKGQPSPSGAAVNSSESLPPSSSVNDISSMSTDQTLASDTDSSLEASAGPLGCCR
# T3 sequence (P45984 whole entry): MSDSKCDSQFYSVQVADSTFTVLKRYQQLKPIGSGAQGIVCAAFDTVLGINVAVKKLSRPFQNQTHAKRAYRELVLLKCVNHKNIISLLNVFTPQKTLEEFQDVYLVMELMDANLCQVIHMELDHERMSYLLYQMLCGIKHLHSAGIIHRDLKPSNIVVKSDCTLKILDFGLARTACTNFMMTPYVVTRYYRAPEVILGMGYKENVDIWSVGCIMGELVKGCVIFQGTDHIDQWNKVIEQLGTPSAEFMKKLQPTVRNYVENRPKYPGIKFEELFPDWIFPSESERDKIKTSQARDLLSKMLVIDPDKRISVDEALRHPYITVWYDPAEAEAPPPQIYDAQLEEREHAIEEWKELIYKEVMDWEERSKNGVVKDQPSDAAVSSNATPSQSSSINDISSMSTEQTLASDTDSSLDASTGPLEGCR
# T2 sequence (P45983 whole entry): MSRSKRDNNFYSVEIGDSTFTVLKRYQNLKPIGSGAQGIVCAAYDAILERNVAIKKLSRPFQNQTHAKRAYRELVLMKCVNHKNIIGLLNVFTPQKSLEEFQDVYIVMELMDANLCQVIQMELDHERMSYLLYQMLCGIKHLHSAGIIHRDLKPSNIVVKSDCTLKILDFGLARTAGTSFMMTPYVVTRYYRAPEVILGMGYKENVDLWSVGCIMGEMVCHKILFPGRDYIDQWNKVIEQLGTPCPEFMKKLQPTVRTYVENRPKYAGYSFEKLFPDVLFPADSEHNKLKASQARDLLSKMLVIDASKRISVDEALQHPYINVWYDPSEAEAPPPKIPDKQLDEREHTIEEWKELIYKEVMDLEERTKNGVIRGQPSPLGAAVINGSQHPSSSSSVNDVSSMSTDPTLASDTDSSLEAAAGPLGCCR
Compound,Cytotoxicity (THP-1Blue cells),melting point,also measured
"5-{[4-(Methanesulfonyl)phenyl]methoxy}-3-(thiophen-3-yl)pyrazolo[1,5-a]quinazoline [compound 20]",N.T. (no cytotoxicity was found in THP-1Blue cells at concentrations up to 50 µM),–,inhibitory activity in THP-1Blue cells (in words) [1]: moderate activity; IC50 [1]: 13.3 ± 2.6 µM
CSc1ccc(Cn2c(=O)c3ccccc3n3ncc(C#N)c23)cc1 (hydrate or solvate) [7e],–,189 to 192 °C,–
CSc1ccc(Cn2c(=O)c3ccccc3n3nccc23)cc1 (hydrate or solvate) [7f],–,137 to 139 °C,–
"NC(=O)c1cnn2c1nc(OCc1ccc(S(N)(=O)=O)cc1)c1ccc(Cl)cc12 (hydrate or solvate) [23c, 8-Chloro-5-(4-sulfamoylbenzyloxy)pyrazolo[1,5-a]quinazoline-3-carboxamide]",–,177 to 180 °C,–
N#Cc1cnn2c1[nH]c(=O)c1ccc([N+](=O)[O-])cc12 [2c],–,280 to 283 °C,–
N#Cc1cnn2c1[nH]c(=O)c1cc([N+](=O)[O-])ccc12 [2d],–,> 295 °C,–
CCOC(=O)c1cnn2c1[nH]c(=O)c1ccc([N+](=O)[O-])cc12 [4c],–,195 to 197 °C,–
CCOC(=O)c1cnn2c1[nH]c(=O)c1cc([N+](=O)[O-])ccc12 [4d],–,217 to 220 °C,–
CCOC(=O)c1cnn2c3ccccc3c(=O)n(Cc3ccc(S(N)(=O)=O)cc3)c12 [7c],–,224 to 226 °C,–
"COc1nc2c(C(N)=O)cnn2c2ccccc12 [13a, 5-Methoxypyrazolo[1,5-a]quinazoline-3-carboxamide]",N.T. (no cytotoxicity was found in THP-1Blue cells at concentrations up to 50 µM),246 to 247 °C,IC50 ([1]; Homo sapiens): 24.4 ± 3.1 µM
"NC(=O)c1cnn2c1nc(OCc1ccccc1)c1ccccc12 [13b, 5-(Benzyloxy)pyrazolo[1,5-a]quinazoline-3-carboxamide]",N.T. (no cytotoxicity was found in THP-1Blue cells at concentrations up to 50 µM),208 to 209 °C,solubility in DMSO (Solubility in DMSO): low solubility in DMSO; IC50 ([1]; Homo sapiens): 4.81 µM; IC50 [1]: 4.8 ± 1.2 µM
NC(=O)c1cnn2c1nc(OCc1ccccc1Cl)c1ccccc12 [13d],–,227 to 229 °C,–
NC(=O)c1cnn2c1nc(OCc1cccc(Cl)c1)c1ccccc12 [13e],–,242 to 245 °C,–
NC(=O)c1cnn2c1nc(OCc1ccc(Br)cc1)c1ccccc12 [13f],–,243 to 244 °C,–
Cc1ccccc1COc1nc2c(C(N)=O)cnn2c2ccccc12 [13g],–,226 to 227 °C,–
COc1cccc(COc2nc3c(C(N)=O)cnn3c3ccccc23)c1 [13h],–,210 to 212 °C,–
"NC(=O)c1cnn2c1nc(OCc1ccc(S(N)(=O)=O)cc1)c1ccccc12 [13i, 5-[(4-Sulfamoylbenzyl)oxy]pyrazolo[1,5-a]quinazoline-3-carboxamide]",N.T. (no cytotoxicity was found in THP-1Blue cells at concentrations up to 50 µM),167 to 168 °C,Kd (JNK3): 9 ± 1.2 µM; Kd (JNK1): 10.9 ± 1.4 µM; Kd (JNK2): 18.5 ± 2.3 µM; IC50 ([1]; Homo sapiens): 9.7 ± 2.4 µM
CSc1ccc(Cn2c(=O)c3ccccc3n3ncc(C(N)=O)c23)cc1 [14c],–,276 to 279 °C,–
c1ccc(COc2nc3c(-c4ccsc4)cnn3c3ccccc23)cc1 [21a],–,179 to 181 °C,–
Nc1ccccc1COc1nc2c(-c3ccsc3)cnn2c2ccccc12 [21b],–,125 to 126 °C,–
"COc1nc2c(C(N)=O)cnn2c2cc(Cl)ccc12 [23a, 8-Chloro-5-methoxypyrazolo[1,5-a]quinazoline-3-carboxamide]",N.T. (no cytotoxicity was found in THP-1Blue cells at concentrations up to 50 µM),288 to 290 °C,IC50 ([1]; Homo sapiens): 7.9 ± 1.6 µM

Compound,Cytotoxicity (THP-1Blue cells),melting point,also measured
"NC(=O)c1cnn2c1nc(OCc1ccc(S(N)(=O)=O)cc1)c1ccc(Cl)cc12 [23c, 8-Chloro-5-(4-sulfamoylbenzyloxy)pyrazolo[1,5-a]quinazoline-3-carboxamide]",N.T. (no cytotoxicity was found in THP-1Blue cells at concentrations up to 50 µM),–,IC50 ([1]; Homo sapiens): 12.2 ± 2.1 µM
"COc1nc2c(C(N)=O)cnn2c2cc([N+](=O)[O-])ccc12 [33a, 5-Methoxy-8-nitropyrazolo[1,5-a]quinazoline-3-carboxamide]",N.T. (no cytotoxicity was found in THP-1Blue cells at concentrations up to 50 µM),–,IC50 ([1]; Homo sapiens): 14.1 ± 2.9 µM
"COc1nc2c(C(N)=O)cnn2c2ccc([N+](=O)[O-])cc12 [33b, 5-Methoxy-7-nitropyrazolo[1,5-a]quinazoline-3-carboxamide]",N.T. (no cytotoxicity was found in THP-1Blue cells at concentrations up to 50 µM),269 to 271 °C,IC50 ([1]; Homo sapiens): 18.2 ± 2.5 µM
"CNc1nc2c(C#N)cnn2c2cc([N+](=O)[O-])ccc12 [42a, 5-(Methylamino)-8-nitropyrazolo[1,5-a]quinazoline-3-carbonitrile]",N.T. (no cytotoxicity was found in THP-1Blue cells at concentrations up to 50 µM),> 300 °C,IC50 ([1]; Homo sapiens): 30.1 ± 3.3 µM; inhibitory activity in THP-1Blue cells (in words) [1]: moderate activity
N#Cc1cnn2c1nc(Nc1ccc(N)cc1)c1ccc([N+](=O)[O-])cc12 [42c],–,> 295 °C,–
N#Cc1cnn2c1nc(Nc1ccc(N)cc1)c1cc([N+](=O)[O-])ccc12 [42d],–,> 295 °C,–
COc1nc2c(C(N)=O)cnn2c2cc(N)ccc12 [46a],–,> 300 °C,–
CNc1nc2c(C#N)cnn2c2cc(N)ccc12 [46b],–,> 300 °C,–
CNc1nc2c(C(N)=O)cnn2c2cc(N)ccc12 [46c],–,> 300 °C,–
CCOC(=O)c1cnn2c1ncc1c(=O)nc[nH]c12 [53a],–,> 300 °C,–
O=c1nc[nH]c2c1cnc1ccnn12 [53b],–,> 300 °C,–
COc1ccc2c(c1)-n1ncc(C(=O)NCc3ccccc3)c1NC2 [58c],N.T. (no cytotoxicity was found in THP-1Blue cells at concentrations up to 50 µM),–,IC50 ([1]; Homo sapiens): 39.1 µM; IC50 [1]: 34.1 ± 4.1 µM
C[S+]([O-])c1ccc(Cn2c(=O)c3ccccc3n3ncc(I)c23)cc1 (stereo not drawn) [compound 9],–,198 to 201 °C,–
C[S+]([O-])c1ccc(COc2nc3c(C(N)=O)cnn3c3ccccc23)cc1 (stereo not drawn) [compound 16],N.T. (no cytotoxicity was found in THP-1Blue cells at concentrations up to 50 µM),225 to 226 °C,Kd (JNK3): 10.4 ± 1.5 µM; Kd (JNK1): 17 ± 2.1 µM; Kd (JNK2): 21 ± 2.4 µM; IC50 ([1]; Homo sapiens): 7.9 ± 1.7 µM
c1ccc(CNc2nc3c(-c4ccsc4)cnn3c3ccccc23)cc1 [compound 22],–,176 to 177 °C,–
"CN(C)/C=N/C(=O)c1cnn2c1[nH]c(=O)c1ccc(Cl)cc12 [compound 26, (E)-8-Chloro-N-[(dimethylamino)methylene]-5-oxo-4,5-dihydropyrazolo[1,5-a]quinazoline-3-carboxamide]",N.T. (no cytotoxicity was found in THP-1Blue cells at concentrations up to 50 µM),288 to 290 °C,IC50 ([1]; Homo sapiens): 49.3 ± 4.6 µM
CCOC(=O)c1cnn2c1nc(Nc1ccc(N)cc1)c1cc([N+](=O)[O-])ccc12 [compound 40],–,269 to 271 °C,–
"CNc1nc2c(C(N)=O)cnn2c2cc([N+](=O)[O-])ccc12 [compound 43, 5-(Methylamino)-8-nitropyrazolo[1,5-a]quinazoline-3-carboxamide]",N.T. (no cytotoxicity was found in THP-1Blue cells at concentrations up to 50 µM),> 300 °C,IC50 ([1]; Homo sapiens): 11.8 ± 2.2 µM
"COc1nc2c(C#N)cnn2c2cc(N)ccc12 [compound 47, 8-amino-5-methoxy-PQ-3-carbonitrile]",–,> 300 °C,–
Cn1c(=O)c2ccc(N)cc2n2ncc(C#N)c12 [compound 48],–,286 to 288 °C,–
Cn1c(=O)c2ccc(N)cc2n2ncc(C(N)=O)c12 [compound 49],–,> 300 °C,–
